This is an account of results in patent publication US9096559B2, “4-carboxybenzylamino derivatives as histone deacetylase inhibitors” (Merck Sharp & Dohme Corp., priority 2007, dated 2015).

Test [1] has as its target histone deacetylase, subtype 1 (HDAC1) (Homo sapiens (Human), UniProt Q13547). The experiment in a line: HDAC1-Flag in vitro deacetylation assay. Type of test: biochemical. The conditions noted are these: IP = inflection point; read-out: HDAC1 IP (inflection point). The procedure:
Novel compounds were tested for their ability to inhibit histone deacetylase, subtype 1 (HDAC1) using an in vitro deacetylation assay. The enzyme source for this assay was an epitope-tagged human HDAC1 complex immuno-purified from stably expressing mammalian cells. The substrate consisted of a commercial product containing an acetylated lysine side chain (BIOMOL Research Laboratories, Inc., Plymouth Meeting, Pa.). Upon deacetylation of the substrate by incubation with the purified HDAC1 complex, a fluorophore is produced that is directly proportional to the level of deacetylation.

In test [2] the test system is human cervical cancer (HeLa) and colon carcinoma (HCT116) cells. The experiment in a line: ATP (Vialight) cell proliferation assay, 72 hr. Type of test: cell-based. As to conditions: IP = inflection point, cell line not given, read-out: Prol-72 hr IP (inflection point). As for the experimental part:
The novel compounds of the present invention were tested for their ability to inhibit proliferation of the human cervical cancer (HeLa) and colon carcinoma (HCT116) cells.
In this assay, also referred to as the Vialight Assay, cellular ATP levels are measured as a means of quantifying cellular proliferation. This assay makes use of a bioluminescent method from Cambrex (ViaLight PLUS, cat. #LT07-121). In the presence of ATP, luciferase converts luciferin to oxyluciferin and light. The amount of light produced (emission at 565 nm) is measured and correlates with a relative amount of proliferation. Human cervical cancer (HeLa) or colon carcinoma (HCT116) cells were incubated with vehicle or increasing concentrations of compound for 48, 72 or 96 hours. Cell proliferation was quantified by adding the cell lysis reagent (provided in the Vialight assay kit) directly to culture wells, followed by addition of the ATP-monitoring reagent (containing luciferase/luciferin). The amount of light produced is then measured (emission at 565 nm). The quantity of light produced, as measured by […], is directly proportional to the number of living cells in culture.

Where only a bound is given, the exact number is not on record here.

Sequence of histone deacetylase, subtype 1 (HDAC1) (Q13547 whole entry): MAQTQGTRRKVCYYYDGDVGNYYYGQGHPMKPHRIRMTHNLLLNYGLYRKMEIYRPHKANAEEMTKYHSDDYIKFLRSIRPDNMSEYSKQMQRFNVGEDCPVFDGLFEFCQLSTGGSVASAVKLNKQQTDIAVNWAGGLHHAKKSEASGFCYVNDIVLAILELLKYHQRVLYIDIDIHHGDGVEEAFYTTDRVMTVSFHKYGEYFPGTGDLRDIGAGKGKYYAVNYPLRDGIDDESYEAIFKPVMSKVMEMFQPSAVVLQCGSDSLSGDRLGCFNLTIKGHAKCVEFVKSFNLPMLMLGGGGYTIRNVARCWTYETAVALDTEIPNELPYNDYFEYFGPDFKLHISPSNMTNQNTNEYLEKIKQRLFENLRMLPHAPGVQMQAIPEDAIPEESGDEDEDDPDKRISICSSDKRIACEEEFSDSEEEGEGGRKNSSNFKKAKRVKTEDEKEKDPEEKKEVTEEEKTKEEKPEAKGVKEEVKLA

`Nc1ccc(-c2ccccc2)cc1NC(=O)c1ccc(CN2C(=O)OC[C@H]2Cc2ccccc2)cc1` [Example 119, N-(4-aminobiphenyl-3-yl)-4-{[(4R)-2-oxo-4-(phenylmethyl)-1,3-oxazolidin-3-yl]methyl}benzamide]: the IC50 in test [1] worked out at 89 nM; in test [2], 1700 nM.
For `Nc1ccc(-c2cccs2)cc1NC(=O)c1ccc(CNC(=O)c2ccccc2)cc1` [Example 48, N-[2-amino-5-(2-thienyl)phenyl]-4-{[(phenylcarbonyl)amino]methyl}benzamide], the IC50 in test [1] was found to be 13 nM; in test [2], 110 nM.
The like results for `CCOC(=O)NCc1ccc(C(=O)Nc2cc(-c3ccccc3)ccc2N)cc1` [Example 10, ethyl[(4-{[(4-aminobiphenyl-3-yl)amino]carbonyl}phenyl)methyl]carbamate] were, in that order, 16 nM and 230 nM.
In the case of `Nc1ccc(-c2ccsc2)cc1NC(=O)c1ccc(CNCC(=O)O)cc1` [Example 125, {[4-({[2-amino-5-(3-thienyl)phenyl]amino}carbonyl)benzyl]amino}acetic acid], the IC50 was 42 nM in test [1] and above 20000 nM in test [2].
For `Nc1ccc(-c2cccs2)cc1NC(=O)c1ccc(CNC(=O)CCc2cccnc2)cc1` [Example 56, N-[2-amino-5-(2-thienyl)phenyl]-4-{[(3-pyridin-3-ylpropanoyl)amino]methyl}benzamide] the same measures were 13 nM and 160 nM.
For `CC(C)C(=O)NCc1ccc(C(=O)Nc2cc(-c3ccccc3)ccc2N)cc1` [Example 27, N-(4-aminobiphenyl-3-yl)-4-{[(2-methylpropanoyl)amino]methyl}benzamide] the same measures were 10 nM and 150 nM.
For `CC(C)CC(=O)NCc1ccc(C(=O)Nc2cc(-c3ccccc3)ccc2N)cc1` [Example 29, N-(4-aminobiphenyl-3-yl)-4-{[(3-methylbutanoyl)amino]methyl}benzamide] the same measures were 14 nM and 210 nM.
On to `CC(=O)NCc1ccc(C(=O)Nc2cc(-c3cccs3)ccc2N)cc1` [Example 36, 4-[(acetylamino)methyl]-N-[2-amino-5-(2-thienyl)phenyl]benzamide], for which the IC50 in test [1] is 11 nM; in test [2] it was 120 nM.
For `Nc1ccc(-c2ccccc2)cc1NC(=O)c1ccc(CN2C(=O)OC[C@@H]2Cc2ccccc2)cc1` [Example 121, N-(4-aminobiphenyl-3-yl)-4-{[(4S)-2-oxo-4-(phenylmethyl)-1,3-oxazolidin-3-yl]methyl}benzamide], the IC50 was found to be 96 nM in test [1] and 1400 nM in test [2].
For `Nc1ccc(-c2ccccc2)cc1NC(=O)c1ccc(CN2C(=O)OC[C@H]2c2ccccc2)cc1` [Example 122, N-(4-aminobiphenyl-3-yl)-4-{[(4R)-2-oxo-4-phenyl-1,3-oxazolidin-3-yl]methyl}benzamide] the same measures were 58 nM and 1100 nM.
On to `Nc1ccc(-c2ccccc2)cc1NC(=O)c1ccc(CNC(=O)Oc2ccccc2)cc1` [Example 14, phenyl[(4-{[(4-aminobiphenyl-3-yl)amino]carbonyl}phenyl)methyl]carbamate], for which the IC50 in test [1] stood at 320 nM; in test [2], 1400 nM.
For `Nc1ccc(-c2cccs2)cc1NC(=O)c1ccc(CNC(=O)C2CCCC2)cc1` [Example 46, N-[2-amino-5-(2-thienyl)phenyl]-4-{[(cyclopentylcarbonyl)amino]methyl}benzamide] the same measures were 20 nM and 140 nM.
For `Nc1ccc(-c2cccs2)cc1NC(=O)c1ccc(CNCC(=O)O)cc1` [Example 124, {[4-({[2-amino-5-(2-thienyl)phenyl]amino}carbonyl)benzyl]amino}acetic acid] the same measures were 34 nM and above 20000 nM.
As for `Nc1ccc(-c2cccs2)cc1NC(=O)c1ccc(CNC(=O)Cc2ccncc2)cc1` [Example 55, N-[2-amino-5-(2-thienyl)phenyl]-4-{[(pyridin-4-ylacetyl)amino]methyl}benzamide], the results for the IC50 in test [1] and in test [2] were 18 nM and 160 nM, respectively.
For `Cc1cscc1-c1ccc(N)c(NC(=O)c2ccc(CNc3ccncc3)cc2)c1` [Example 70, N-[2-amino-5-(4-methyl-3-thienyl)phenyl]-4-[(4-pyridinylamino)methyl]benzamide] the same measures were 180 nM and 13000 nM.
The like results for `Nc1ccc(-c2cccs2)cc1NC(=O)c1ccc(CNC(=O)OCc2ccccc2)cc1` [Example 22, phenylmethyl {[4-({[2-amino-5-(2-thienyl)phenyl]amino}carbonyl)phenyl]methyl}carbamate] were, in that order, 53 nM and 320 nM.
For `Nc1ccc(-c2cccs2)cc1NC(=O)c1ccc(CN2C(=O)OC[C@H]2Cc2ccccc2)cc1` [Example 120, N-[2-amino-5-(2-thienyl)phenyl]-4-{[(4R)-2-oxo-4-(phenylmethyl)-1,3-oxazolidin-3-yl]methyl}benzamide] the same measures were 84 nM and 920 nM.
On to `CCCOC(=O)NCc1ccc(C(=O)Nc2cc(-c3ccccc3)ccc2N)cc1` [Example 12, propyl[(4-{[(4-aminobiphenyl-3-yl)amino]carbonyl}phenyl)methyl]carbamate], for which the IC50 in test [1] came to 29 nM; in test [2] it was 360 nM.
With `Nc1ccc(-c2ccccc2)cc1NC(=O)c1ccc(CNC(=O)OCc2ccccc2)cc1` [Example 15, phenylmethyl[(4-{[(4-aminobiphenyl-3-yl)amino]carbonyl}phenyl)methyl]carbamate], the IC50 in test [2] was 820 nM.
Same read-out and setting: the value for `CC(C)OC(=O)NCc1ccc(C(=O)Nc2cc(-c3ccccc3)ccc2N)cc1` [Example 11, 1-methylethyl[(4-{[(4-aminobiphenyl-3-yl)amino]carbonyl}phenyl)methyl]carbamate] was 130 nM; that for `Nc1ccc(-c2cccs2)cc1NC(=O)c1ccc(CNC(=O)C2CCCCC2)cc1` [Example 45, N-[2-amino-5-(2-thienyl)phenyl]-4-{[(cyclohexylcarbonyl)amino]methyl}benzamide] was 190 nM.
On to `Nc1ccc(-c2ccccc2)cc1NC(=O)c1ccc(CNC(=O)OCc2cccnc2)cc1` [Example 1, Pyridin-3-ylmethyl[(4-{[(4-aminobiphenyl-3-yl)amino]carbonyl}phenyl)methyl]carbamate], for which the IC50 in test [2] turned out to be 380 nM.
With `CN(Cc1ccc(C(=O)Nc2cc(-c3ccccc3)ccc2O)cc1)Cc1cnccn1` [Example 113, N-(4-hydroxy-3-biphenylyl)-4-{[methyl(2-pyrazinylmethyl)amino]methyl}benzamide], in test [1], the IC50 amounted to 31 nM.
Still for that read-out and setting: the value for `O=C(Nc1cc(-c2ccccc2)ccc1O)c1ccc(CNCCc2ccccc2)cc1` [Example 71, N-(4-hydroxy-3-biphenylyl)-4-{[(2-phenylethyl)amino]methyl}benzamide] was 970 nM.
On the same count and under the same terms, the value for `O=C(Nc1cc(-c2ccccc2)ccc1O)c1ccc(CN2Cc3ccccc3C2)cc1` [Example 95, 4-(1,3-dihydro-2H-isoindol-2-ylmethyl)-N-(4-hydroxy-3-biphenylyl)benzamide] was 27000 nM; that for `O=C(Nc1cc(-c2ccccc2)ccc1O)c1ccc(CNCCCc2ccccc2)cc1` [Example 89, N-(4-hydroxy-3-biphenylyl)-4-{[(3-phenylpropyl)amino]methyl}benzamide] was 450 nM.
Still for that read-out and setting: the value for `CC(C)CCNCc1ccc(C(=O)Nc2cc(-c3ccccc3)ccc2O)cc1` [Example 92, N-(4-hydroxy-3-biphenylyl)-4-{[(3-methylbutyl)amino]methyl}benzamide] was 100 nM.
`O=C(Nc1cc(-c2ccccc2)ccc1O)c1ccc(CNC2CC2)cc1` [Example 75, 4-[(cyclopropylamino)methyl]-N-(4-hydroxy-3-biphenylyl)benzamide]: the IC50 in test [1] was found to be 76 nM.
Same read-out and setting: the value for `CN(CCc1ccncc1)Cc1ccc(C(=O)Nc2cc(-c3ccccc3)ccc2O)cc1` [Example 104, N-(4-hydroxy-3-biphenylyl)-4-({methyl[2-(4-pyridinyl)ethyl]amino}methyl)benzamide] was 33 nM; that for `CN(Cc1ccc(C(=O)Nc2cc(-c3ccccc3)ccc2O)cc1)c1ccncc1` [Example 103, N-(4-hydroxy-3-biphenylyl)-4-{[methyl(4-pyridinyl)amino]methyl}benzamide] was 13 nM; that for `O=C(Nc1cc(-c2ccccc2)ccc1O)c1ccc(CNCc2cccnc2)cc1` [Example 81, N-(4-hydroxy-3-biphenylyl)-4-{[(3-pyridinylmethyl)amino]methyl}benzamide] was 32 nM.
The same measure, in the same setting: the value for `CC(C)NCCNCc1ccc(C(=O)Nc2cc(-c3ccccc3)ccc2O)cc1` [Example 91, N-(4-hydroxy-3-biphenylyl)-4-({[2-(isopropylamino)ethyl]amino}methyl)benzamide] was 44 nM.
Regarding `CNCCN(C)Cc1ccc(C(=O)Nc2cc(-c3ccccc3)ccc2O)cc1` [Example 101, N-(4-hydroxy-3-biphenylyl)-4-({methyl[2-(methylamino)ethyl]amino}methyl)benzamide], the IC50 in test [1] worked out at 35 nM.
